Results reported in patent publication US11053253B2, “Macrocyclic compounds for treatment of medical disorders” (Achillion Pharmaceuticals, Inc., priority 2017, dated 2021).

Target: Human Factor D (Homo sapiens (Human), UniProt P00746)
Assay: Human Factor D Assay
Type: biochemical
Conditions: Human Factor D 80 nM, substrate Z-L-Lys-SBzl, DTNB, A405; read-out: IC50 (Stars)
Procedure: Example 2. Human Factor D Assay
Human Factor D (purified from human serum, Complement Technology, Inc.) at 80 nM final concentration is incubated with test compound at various concentrations for 5 min at room temperature in 50 mM Tris, 1M NaCl, pH 7.5. A synthetic substrate Z-L-Lys-SBzl and DTNB (Ellman's reagent) are added to final concentrations of 100 µM each. Absorbance at 405 nm (A405) is recorded at 30 second intervals for 30 minutes using a microplate spectrophotometer. IC50 values are calculated by nonlinear regression of Complement Factor D reaction rates as a function of test compound concentration.

Sequence of Human Factor D (P00746 26-253): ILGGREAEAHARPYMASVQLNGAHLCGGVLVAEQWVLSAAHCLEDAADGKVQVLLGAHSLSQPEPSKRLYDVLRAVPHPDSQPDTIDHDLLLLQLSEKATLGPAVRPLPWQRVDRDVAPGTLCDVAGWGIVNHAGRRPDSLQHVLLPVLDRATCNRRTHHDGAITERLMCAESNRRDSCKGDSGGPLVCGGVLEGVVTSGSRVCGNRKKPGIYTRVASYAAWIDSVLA

Compound	IC50
CC(=O)c1nn(CC(=O)N2[C@H]3C[C@@]4(CCCCCCCN(C)Cc5ccc(Br)nc5NC3=O)C[C@@H]24)c2c(CF)cc(-c3cnc(C)nc3)cc12 [Compound T-97]	< 1 µM
CC(=O)c1nn2c3c(cc(-c4cnc(C)nc4)cc13)CC=CCCCC(=O)NC[C@@]13C[C@@H](C(=O)Nc4ccn(CC(F)(F)F)n4)N(C(=O)C2)[C@@H]1C3 [Compound T-91]	< 1 µM
CC(=O)c1nn2c3c(cc(-c4cnc(C)nc4)cc13)CCCCC[C@H](C)C(=O)N(C)C[C@@]13C[C@@H](C(=O)Nc4nc(C(F)(F)F)ccc4C)N(C(=O)C2)[C@@H]1C3 [Compound T-244]	< 1 µM
CC(=O)c1nn2c3cc(c(-c4cnc(C)nc4)cc13)OCCCCCCCCC[C@@]13C[C@@H](C(=O)Nc4nc(Br)ccc4C)N(C(=O)C2)[C@@H]1C3 [Compound T-100]	< 1 µM
CC(=O)c1nn2c3c(cc(-c4cnc(C)nc4)cc13)CCCCCC(C)(C)C(=O)N(C)C[C@@]13C[C@@H](C(=O)Nc4ccn(CC(F)(F)F)n4)N(C(=O)C2)[C@@H]1C3 [Compound T-191]	< 1 µM
CC(=O)c1nn(CC(=O)N2[C@H]3C[C@@]4(CCCCCCCOCc5ccc(Br)nc5NC3=O)C[C@@H]24)c2cnc(-c3cnc(C)nc3)cc12 [Compound T-88]	< 1 µM
CC(=O)c1nn(CC(=O)N2[C@H]3C[C@]4(C[C@@H]24)Cn2cc(nn2)COCc2ccc(Br)nc2NC3=O)c2ccc(-c3cnc(C)nc3)cc12 [Compound T-18, (31R,33S,35R,Z)-32-(2-(3-acetyl-5-(2-methylpyrimidin-5-yl)-1H-indazol-1-yl)acetyl)-66-bromo-11H-8-oxa-32,5-diaza-6(2,3)-pyridina-1(1,4)-triazola-3(5,3)-bicyclo[3.1.0]hexanacyclononaphan-4-one]	< 1 µM
CC(=O)N[C@H]1CC=CCOCc2ccc(Br)nc2NC(=O)[C@@H]2C[C@]3(C[C@H]3N2C(=O)Cn2nc(C(C)=O)c3cc(-c4cnc(C)nc4)ccc32)CN(C)C1=O [Compound T-103]	< 1 µM
CC(=O)c1nn(CC(=O)N2C[C@@]3(F)CNC(=O)C(C)(C)CC=CCOCc4ccc(Br)nc4NC(=O)[C@@H]2C3)c2ccc(-c3cnc(C)nc3)cc12 [Compound T-172]	< 1 µM
CC(=O)c1nn(CC(=O)N2[C@H]3C[C@]4(C[C@@H]24)CN(C)CCCCC=CCc2ccc(Br)nc2NC3=O)c2c(CF)cc(-c3cnc(C)nc3)cc12 [Compound T-62]	< 1 µM
CC(=O)c1nn(CC(=O)N2[C@H]3C[C@]4(C[C@@H]24)Cn2ccc(n2)C=CCCC(F)(F)c2ccc(Br)nc2NC3=O)c2ccc(-c3cnc(C)nc3)cc12 [Compound T-104]	< 1 µM
CC(=O)c1nn2c3c(cc(-c4cnc(C)nc4)cc13)CCCCCC(=O)NC[C@]1(F)C[C@@H](C(=O)Nc3nc(C(F)(F)F)ccc3C)N(C1)C(=O)C2 [Compound T-129]	1 to 10 µM
CC(=O)c1nn2c3c(cc(-c4cnc(C)nc4)cc13)CCCCCCC(=O)NC[C@@]13C[C@@H](C(=O)Nc4cc(C)c(F)c(Br)n4)N(C(=O)C2)[C@@H]1C3 [Compound T-218]	< 1 µM
CC(=O)c1nn2c3c(nc(-c4cnc(C)nc4)cc13)C=CCCCC(=O)NC[C@@]13C[C@@H](C(=O)Nc4nc(C(F)(F)F)ccc4C)N(C(=O)C2)[C@@H]1C3 [Compound T-126]	< 1 µM
CC(=O)c1nn2c3c(cc(-c4cnc(C)nc4)cc13)CCCCCCC(=O)NC[C@@]13C[C@@H](C(=O)Nc4cc(C)cc(Br)n4)N(C(=O)C2)[C@@H]1C3 [Compound T-190]	< 1 µM
CC(=O)c1nn2c3c(cc(-c4cnc(C)nc4)cc13)CCCCCCC=Cc1cn(nn1)C[C@@]13C[C@@H](C(=O)Nc4nc(Br)ccc4C)N(C(=O)C2)[C@@H]1C3 [Compound T-49]	< 1 µM

Compound	IC50
Cc1ncc(-c2cc(CF)c3c(c2)c(C=O)nn3CC(=O)N2[C@H]3C[C@]4(C[C@@H]24)CN(C)CCCCCCCc2ccc(Br)nc2NC3=O)cn1 [Compound T-74]	< 1 µM
CC(=O)c1nn(CC(=O)N2[C@H]3C[C@@]4(Cc5nc(no5)C=CCOCc5ccc(Br)nc5NC3=O)C[C@@H]24)c2c(C)cc(-c3cnc(C)nc3)cc12 [Compound T-113]	< 1 µM
CC(=O)c1nn2c3c(cc(-c4cnc(C)nc4)cc13)CCCCCCC(=O)NC[C@@]13C[C@@H](C(=O)Nc4nc(Br)ccc4C4CC4)N(C(=O)C2)[C@@H]1C3 [Compound T-212]	< 1 µM
CC(=O)c1nn(CC(=O)N2[C@H]3C[C@]4(C[C@@H]24)Cn2ccc(n2)C=CCCC(F)(F)c2ccc(Br)nc2NC3=O)c2cnc(-c3cnc(C)nc3)cc12 [Compound T-105]	< 1 µM
CC(=O)c1nn(CC(=O)N2[C@H]3C[C@@]4(COCCCCOCc5ccc(Br)nc5NC3=O)C[C@@H]24)c2ccc(-c3cnc(C)nc3)cc12 [Compound T-4, (41R,43S,45S)-42-(2-(3-acetyl-5-(2-methylpyrimidin-5-yl)-1H-indazol-1-yl)acetyl)-16-bromo-6,11-dioxa-42,2-diaza-1(2,3)-pyridina-4(3,5)-bicyclo[3.1.0]hexanacyclododecaphan-3-one]	< 1 µM
COc1cc(Br)nc(NC(=O)[C@@H]2C[C@]34CNC(=O)CCCC=CCc5cc(-c6cnc(C)nc6)cc6c(C(C)=O)nn(c56)CC(=O)N2[C@@H]3C4)c1 [Compound T-209]	< 1 µM
CC(=O)c1nn(CC(=O)N2[C@H]3C[C@]4(C[C@@H]24)CN(C)CCCCCCc2ccc(Br)nc2NC3=O)c2cnc(-c3cnc(C)nc3)cc12 [Compound T-76]	< 1 µM
CC(=O)c1nn2c3c(cc(-c4cnc(C)nc4)cc13)C=CCCCCCN(C)C[C@@]13C[C@@H](C(=O)Nc4nc(Br)ccc4C)N(C(=O)C2)[C@@H]1C3 [Compound T-58]	< 1 µM
CC(=O)c1nn(CC(=O)N2C[C@@]3(F)COCCCCCCCCc4ccc(Br)nc4NC(=O)[C@@H]2C3)c2ccc(-c3cnc(C)nc3)cc12 [Compound T-194]	< 1 µM
CC(=O)c1nn(CC(=O)N2[C@H]3C[C@@]4(C=CCCCCCCc5ccc(Br)nc5NC3=O)C[C@@H]24)c2cnc(-c3cnc(C)nc3)cc12 [Compound T-43]	< 1 µM
CC(=O)c1nn2c3c(cc(-c4cnc5cc(C6CC6)nn5c4)cc13)CCCCCCC(=O)NC[C@@]13C[C@@H](C(=O)Nc4nc(C(F)(F)F)ccc4C)N(C(=O)C2)[C@@H]1C3 [Compound T-258]	< 1 µM
CC(=O)c1nn(CC(=O)N2[C@H]3C[C@@]4(C=CCCC5=NN=C(Cc6ccc(Br)nc6NC3=O)O5)C[C@@H]24)c2cnc(-c3cnc(C)nc3)cc12 [Compound T-47]	< 1 µM
CC(=O)c1nn(CC(=O)N2[C@H]3C[C@@]4(COCCCCCc5ccc(Br)nc5NC3=O)C[C@@H]24)c2ccc(-c3cnc(C)nc3)cc12 [Compound T-38]	< 1 µM
CC(=O)c1nn(CC(=O)N2[C@H]3C[C@@]4(CNC(=O)C(C)(C)CCCOCc5ccc(C(F)(F)F)nc5NC3=O)C[C@@H]24)c2ccc(-c3cnc(C)nc3)cc12 [Compound T-236]	< 1 µM
CC(=O)c1nn(CC(=O)N2[C@H]3C[C@]4(C[C@@H]24)Cn2ccc(n2)/C=C\COCc2ccc(Br)nc2NC3=O)c2ccc(-c3cnc(C)nc3)cc12 [Compound T-69]	< 1 µM
CC(=O)c1nn2c3c(cc(-c4cnc(C)nc4)cc13)CCCCCCC(=O)N(C)C[C@@]13C[C@@H](C(=O)Nc4ccn(CC(F)(F)F)n4)N(C(=O)C2)[C@@H]1C3 [Compound T-203]	< 1 µM
